Assay results taken from patent publication US20200016078A1, “COMPOSITION FOR TRANSDERMAL DELIVERY OF MICRONUTRIENTS AND METHOD OF PREPARATION THEREOF” (CERELIA NUTRITECH PVT LTD, priority 2017, published 2020).

Details: rat, in vivo, po, 10 mg
Method: The compound was dissolved in 5 ml of distilled water and then made up to 10 ml with distilled water to make a solution of 5 mg/ml concentration. For group 1 (G1), a dose volume of 2 ml formulation containing 10 mg of reference standard was administered to each rat irrespective of the body weight. Test formulation is as provided in example 5B. Test formulation was used as such as the formulation is in gel form for dermal application. 3 gm of the gel formulation containing 10 mg of test cynacobalamine is a test formulation.
One day prior to the dermal application of test item formulation for group 2 (G2) rats, the hair from the back of each rat was removed using hair removal cream and washed with saline. On the day of experiment, the shaved area was wiped with 70% isopropyl alcohol and dried. […] Immediately after application, the area was covered with non-absorbable cotton and was secured with adhesive tape.
Blood was collected through retro orbital plexus using capillary at specified time points i.e. 0.5 hr, 1.0 hr, 3.0 hr, 6.0 hr & 24.0 hrs post-dose. To collect the serum sample, the tubes were kept for 30 min. at room temperature and allowed for coagulation and then separated by centrifugation the tubes at 3000 rpm for 10 min at 4° C.

AUC (0-∞): 2775.15 ng·h/mL
Cmax: 205.67 ng/mL
Tmax: 1 h
Substance: Cynacobalamine [Oral]
